Source: patent publication US5459143A, “N,N-disubstituted piperazines” (Bayer Aktiengesellschaft, priority 1993, dated 1995)

Columns and labels:
[1] = tested on: monocyte-free human T cells; assay: Inhibition of 5-HT-dependent T cell proliferation; type: cell-based; settings: PWM (1:200) and 5-HT (100 μM) stimulated T cells, 3H-thymidine incorporation on day 7, tested at 33 μM-0.1 μM
Description: The in vitro activity of the compounds according to the invention results from their capability to inhibit T cell proliferation, which is previously stimulated by serotonin.
Inhibition of 5-HT-dependent T cell proliferation
Peripheral mononuclear blood cells (PBMC) are obtained from the buffy coat of the blood of healthy subjects. After isolation by means of isolymph gradients (Pharmacia), the PBMC are washed twice and used directly. Purified T cells are obtained by E rosette formation with sheep erythrocytes [cf. Blue, M. -L., J. F. Daley, H. Levine, K. A. Craig and S. F. Schlossmann, 1986, Biosynthesis and surface expression of T8 by peripheral blood T4+ cells in vitro, J. Immunol. 137, 1202]. Monocytes are partially removed by adhesion to tissue culture plates or flasks. PBMC, T cells or purified T cells (depleted in monocytes) at 5×10^5 /ml, 100 μl/well are cultured in RPMI 1640 medium with 10% fetal calf serum (GIBCO) and L-glutamine in 96-well microculture plates (Becton-Dickinson) under a 5% CO2 atmosphere at 37° C. for 7 days. The cultures are treated with 1 μCi of ^3 H-thymidine for 6 h on the 7th day and collected on filter paper, and the incorporated radioactivity is determined by means of liquid scintillation counting.
The test substances are dissolved in 10 mM HCl in order to achieve a final concentration of 1 mM in each case. The compounds are diluted serially 3× with medium in order to obtain a final concentration between 33 μM-0.1 μM. PWM (1:200, pokeweed mitogen) and 5-HT (100 μM, serotonin), which contain the test substances, are added to monocyte-free human T cells. The positive control (maximum proliferation) is obtained from cultures containing T cells, PWM and 5-HT. The negative control (minimal proliferation) is obtained from cultures containing T cells and PWM without 5-HT. The inhibitory activity of the test substances is expressed as the IC50 in μM.

Lewis rats = assay: Adjuvant arthritis model in the rat; type: in vivo; settings: Freund's adjuvant arthritis, malleolus diameter day 16 vs day 0, dosing on days 0, 1, 2, 5, 7, 9, 12 and 14
Experimental: Adjuvant arthritis model in the rat
Freund's adjuvant (FA) is prepared by addition of 10 mg/ml of heat-killed Mycobacterium butyricum to extra-heavy mineral oil. Lewis rats receive a 0.1 ml injection of FA (1 mg/animal) subcutaneously in the right hind paw. An acute inflammation takes place there, which is characterized by reddening, edema and a predominant neutrophilic cell infiltration (primary reaction). Tumescent areas in the treated paw on day 5 are followed between day 10-12 by an increase in the swelling (chronic inflammatory reaction) and the occurrence of a swelling in the opposite untreated paw (secondary immune response).
The cell infiltration of the chronic inflammation and the second immune response are mainly mononuclear, which indicates the presence of T-cell mediated immunity. The animals are observed daily, and the swelling is measured in millimeters on days 12 and 16 using a hand-adjustable micrometer. The swelling reaches its peak on the 16th day, on which the animals are sacrificed and tissue samples are taken for histological evaluation.
The extent of the swelling is determined by calculation of the greatest difference in the malleolus diameter between the 16th and the 0th day.
The animals receive the compounds according to the invention in a suspension of 5% polyethylene glycol and 0.5% Tween 80 in phosphate buffer solution p.o. or i.p. on days 0, 1, 2, 5, 7, 9, 12 and 14 [cf. for this purpose L. Sokoloff, 1984, Int. Rev. Exp. Pathol. 26, 107; M. E. J. Bittingham et al., 1989, J. Exp. Med. 171, 339; K. M. Connolly et al., 1989, Agents and Actions 27, 328].

| Compound | IC50 [1] [nM] | Inhibition of the swelling in % after administration of 10 mg/kg i.p. (Lewis rats) [%] |
| --- | --- | --- |
| O=C1C2C3c4ccccc4C(c4ccccc43)C2C(=O)N1CCCN1CCN(C(c2ccccc2)c2ccccc2)CC1 (centres unmarked) [Example 4] | > 10000 |  |
| O=C1C2C3c4ccccc4C(c4ccccc43)C2C(=O)N1CCCN1CCN(c2ncccn2)CC1 (centres unmarked) [Example 3] | > 10000 |  |
| Fc1ccc(C(c2ccc(F)cc2)N2CCN(CCCN3CC4C5c6ccccc6C(c6ccccc65)C4C3)CC2)cc1 (centres unmarked) [Example 13] |  | 2 |
| CC12c3ccccc3C(c3ccccc31)C1CN(CCCN3CCN(C(c4ccccc4)c4ccccc4)CC3)CC12 (centres unmarked) [Example 20] | 500 | 79 |
| c1ccc2c(c1)C1c3ccccc3C2C2CN(CCCN3CCN(C4CCCC4)CC3)CC12 (centres unmarked) [Example 24] | 6000 |  |
| c1ccc2c(c1)C1c3ccccc3C2C2CN(CCCN3CCN(C4CCCCCC4)CC3)CC12 (centres unmarked) [Example 19] | 5000 |  |
| O=C1C2C3c4ccccc4C(c4ccccc43)C2C(=O)N1CCCN1CCN(CCc2ccccc2C(F)(F)F)CC1 (centres unmarked) [Example 5] | 2000 | 24 |
| c1cnc(N2CCN(CCCCN3CC4C5c6ccccc6C(c6ccccc65)C4C3)CC2)nc1 (centres unmarked) [Example 17] | > 10000 |  |
| Clc1ccc(C(c2ccccc2)N2CCN(CCCN3CC4C5c6ccccc6C(c6ccccc65)C4C3)CC2)cc1 (centres unmarked) [Example 26] | 1000 |  |
| CC(C)(C)c1ccc(CN2CCN(CCCN3C(=O)C4C5c6ccccc6C(c6ccccc65)C4C3=O)CC2)cc1 (centres unmarked) [Example 6] | 3000 | 24 |
| CC(C)(C)c1ccc(CN2CCN(CCCN3CC4C5c6ccccc6C(c6ccccc65)C4C3)CC2)cc1 (centres unmarked) [Example 18] | 2000 |  |
| O=C1C2C3c4ccccc4C(c4ccccc43)C2C(=O)N1CCCN1CCN(C(c2ccccc2)c2ccc(Cl)cc2)CC1 (centres unmarked) [Example 8] | 50000 |  |
| FC(F)(F)c1ccccc1CCN1CCN(CCCN2CC3C4c5ccccc5C(c5ccccc54)C3C2)CC1 (centres unmarked) [Example 16] | 5000 | 13 |
| O=C1C2C3c4ccccc4C(c4ccccc43)C2C(=O)N1CCCN1CCN(C2CCCC2)CC1 (centres unmarked) [Example 10] | 30000 |  |
| c1ccc(C(c2ccccc2)N2CCN(CCCN3CC4C5c6ccccc6C(c6ccccc65)C4C3)CC2)cc1 (centres unmarked) [Example 21] | 500 | 0.5 |
| O=C1C2C3c4ccccc4C(c4ccccc43)C2C(=O)N1CCCN1CCN(C(c2ccc(F)cc2)c2ccc(F)cc2)CC1 (centres unmarked) [Example 1] | > 10000 |  |
| Fc1ccc(C(CCCN2CCN(CCCN3CC4C5c6ccccc6C(c6ccccc65)C4C3)CC2)c2ccc(F)cc2)cc1 (centres unmarked) [Example 23] | 100 |  |
| c1cnc(N2CCN(CCCN3CC4C5c6ccccc6C(c6ccccc65)C4C3)CC2)nc1 (centres unmarked) [Example 15] | 2000 |  |
